This passage reports IC50 results from patent publication US12329739B2, “Isoflavonoid compounds and methods for the treatment of cancer” (Aardvark Therapeutics, Inc., priority 2010, dated 2025).

Some results are limits rather than exact numbers.

The subject of one assay is PC3. The assay can be described thus: MTT proliferation assay, PC3. In kind it is cell-based. Conditions: Prostate, PC3, 120 h of exposure. Here is the method: (§1) Proliferation Assays. IC50 values were determined for each cell line. Cells were seeded in 96-well plates at an appropriate cell density as determined from growth kinetics analysis and cultured for 5 days in the absence and presence of the test compounds. Cell proliferation was assessed after the addition of 20 μl of 3-4,5 dimethylthiazol-2,5-diphenyl tetrazolium bromide (MTT, 5 mg/ml in PBS, Sigma) for 5 hrs at 37° C. according to manufacturer's instructions. IC50 values were calculated from semi-log plots of % of control proliferation on the y-axis against log dose on the x-axis.
(§2) Anti-proliferative Activity of Isoflavonoid Derivatives. IC50 values were determined for each cell line after 120 h of exposure.

A further assay concerns DU145. Description: MTT proliferation assay, DU145. In kind it is cell-based. The settings on record: Prostate, DU145, 120 h of exposure. On the procedure:
as §1, §2
Background: Formazan colour is commonly taken as a measure of viable cells.

The next assay deals with LNCaP. Description: MTT proliferation assay, LNCaP. Conditions: Prostate, 120 h of exposure. In kind it is cell-based. On the procedure:
as §1, §2

The test system of a further assay is COLO205. The assay can be described thus: MTT proliferation assay, COLO205. In kind it is cell-based, human. The settings on record: CRC, COLO205, 120 h of exposure. Here is the method:
(§3) The human non-small cell lung adenocarcinoma lines NCI-H1299 (CRL-5803), NCI-H460 (HTB-177), NCI-H358 (CRL-5807), NCI-H838 (CRL-5844), the human colorectal adenocarcinoma lines COLO 205 (CCL-222), HCT-15 (CCL-225) and the human gastric cancer cell line NCI-N87 (CRL-5822) were cultured in RPMI 1640 medium containing 2 g/L sodium bicarbonate (Hyclone/Invitrogen) supplemented with 2 mM L-glutamine (Gibco) 1 mM sodium pyruvate (Sigma), 10 mM HEPES (Sigma) and 4500 mg/L glucose (Sigma). The human non-small cell lung adenocarcinoma line NCI-H2126 (CCL-256) was cultured in DMEM:F12(1:1) (Hyclone/Invitrogen) containing 2.5 mM L-glutamine 2.4 g/L sodium bicarbonate supplemented with 5% fetal bovine serum (FBS), an additional 2 mM L-glutamine, 15 mM HEPES, 0.005 mg/ml insulin (Sigma), 0.01 mg/ml transferrin (Sigma), 30 nM sodium selenite (Sigma), 10 nM hydrocortisone (Sigma) and 10 nM beta-estradiol (Sigma). The human colorectal adenocarcinoma line HT-29 (HTB-38) and the human gastric cancer cell lines OE-19 (#96071721) and MKN1 (JCRB0252) were cultured in RPMI 1640 media supplemented with 2 mM L-glutamine.
as §1, §2

The next assay deals with A2780. Description: MTT proliferation assay, A2780. In kind it is cell-based. The settings on record: Ovarian, A2780, 120 h of exposure. Here is the method: as §1, §2
For another assay, the system named is R-182. Description: MTT proliferation assay, R-182. The assay is classed as cell-based. Conditions: Ovarian, R-182, 120 h of exposure.
Description: Tissue culture. The multidrug resistant primary epithelial ovarian cancer cell line R-182 TARA was a gift from Dr. Gil Mor (Yale University, New Haven, CT, USA). This cell line was derived by explant from ovarian tumors and cultured as previously described. All other cell lines were purchased from American Type Culture Collection (ATCC, Manassas, VA, USA) with the exception of MKN1, HuH-7, JHH-1, which were purchased from the Japanese Collection of Research Bioresources (JCRB, Osaka, Japan), and OE19 which was purchased from the European Collection of Cell Cultures (ECACC, Salisbury, UK).
as §1, §2

A further assay deals with CP70. Description: MTT proliferation assay, CP70. Conditions: Ovarian, CP70, 120 h of exposure. In kind it is cell-based. Here is the method: as §1, §2
The subject of the next assay is NCI-H460. The assay can be described thus: MTT proliferation assay, NCI-H460. The assay is classed as cell-based, human. Conditions: NSCLC, NCI-H460, 120 h of exposure. On the procedure:
as §3, §1, §2

The subject of the next assay is A549. Description: MTT proliferation assay, A549. In kind it is cell-based. Conditions: NSCLC, A549, 120 h of exposure. On the procedure: as §1, §2
The test system of the next assay is CALU3. The assay can be described thus: MTT proliferation assay, CALU3. The assay is classed as cell-based. The settings on record: NSCLC, CALU3, 120 h of exposure. Here is the method: as §1, §2
A further assay relates to HepG2. Description: MTT proliferation assay, HepG2. In kind it is cell-based, human. The settings on record: Liver, HepG2, 120 h of exposure. On the procedure:
(§4) The human hepatocellular carcinoma lines HepG2 (HB-8065), SK-HEP-1 (HTB-52) and the normal human lung fibroblast line IMR-90 (CCL-186) were cultured in Minimum Essential Eagles Medium containing 2 mM L-glutamine, 2.2 g/L sodium bicarbonate, supplemented with 1 mM sodium pyruvate and 0.1 mM non-essential amino acids. The human hepatocellular carcinoma line JHH-1 (JCRB1062) was cultured in Williams E Medium (Invitrogen) containing 2.2 g/L sodium bicarbonate, supplemented with 2 mM L-glutamine. The hepatocellular carcinoma line HuH-7 (JCRB0403) was cultured in DMEM, supplemented with 2 mM L-glutamine.
as §1, §2

For another assay, the system named is SK-Hep-1. Description: MTT proliferation assay, SK-Hep-1. The assay is classed as cell-based, human. The settings on record: Liver, SK-Hep-1, 120 h of exposure. On the procedure:
as §4, §1, §2

A further assay has as its system HuH-7. Description: MTT proliferation assay, HuH-7. The assay is classed as cell-based, human. Conditions: Liver, HuH-7, 120 h of exposure. Here is the method:
as §4, §1, §2

The next assay has as its system A2058. The assay can be described thus: MTT proliferation assay, A2058. Conditions: Melanoma, A2058, 120 h of exposure. In kind it is cell-based. Here is the method:
as §1, §2

In a further assay the test system is 4405. The assay can be described thus: MTT proliferation assay, 4405. In kind it is cell-based. Conditions: Melanoma, 4405, 120 h of exposure. Here is the method:
as §1, §2

For another assay, the system named is MM200. The assay can be described thus: MTT proliferation assay, MM200. The assay is classed as cell-based. Conditions: Melanoma, MM200, 120 h of exposure. Here is the method: as §1, §2
In the next assay the test system is MDA-MB-468. The assay can be described thus: MTT proliferation assay, MDA-MB-468. In kind it is cell-based, human. The settings on record: Breast, MDA-MB-468, 120 h of exposure. On the procedure: The human gastric cancer cell line AGS (CRL-1739) was cultured in Hams F-12K (Kaighans modification) medium containing 2 mM L-glutamine, 2.5 g/L sodium bicarbonate and 2 mM sodium pyruvate. The human breast adenocarcinoma line MDA-MB-468 (HTB-132) was cultured in DMEM:F12 (1:1) medium containing 2.5 mM L-glutamine, 2.4 g/L sodium bicarbonate, supplemented with an additional 2 mM L-glutamine.
as §1, §2

Another assay deals with SKBR-3. The assay can be described thus: MTT proliferation assay, SKBR-3. In kind it is cell-based, human. The settings on record: Breast, SKBR-3, 120 h of exposure. On the procedure: The human colorectal adenocarcinoma line HCT-116 (CCL-247) and the human breast adenocarcinoma line SK-BR-3 (HTB-30) were cultured in McCoy's 5a Medium (Invitrogen) containing 1.5 mM L-glutamine and 2.2 g/L sodium bicarbonate. The human colorectal adenocarcinoma line SW620 (CCL-227) was cultured in Leibovitz's L-15 Medium (Invitrogen) containing 2.05 mM L-glutamine.
as §1, §2

Where [1] appears, read: Homo sapiens, MDA-MB-468, 120 h.

As a reminder, the IC50 is the concentration at which inhibition is half-maximal. A higher IC50 goes with a need for much substance.

`Cc1c(O)ccc2c1OC[C@H](c1ccc(O)cc1)[C@@H]2c1ccc(O)cc1` [l-5, l-cis-3-(4-hydroxyphenyl)-4-(4-hydroxyphenyl)-8-methylchroman-7-ol]: the IC50 with PC3 (Homo sapiens, PC-3, 120 h) is at least 10 µM; in the assay with DU145 (Homo sapiens, DU-145), at least 10 µM; in the assay on LNCaP (Homo sapiens) it was at least 10 µM; with COLO205 (Homo sapiens, COLO 205) it was at least 10 µM; in the assay with A2780 (Homo sapiens, A2780, 120 h), at least 10 µM; in the assay on R-182 it was at least 10 µM. Besides, the concentration for half-maximal inhibition (IC50) in the assay on CP70 (120 h) is at least 10 µM; with NCI-H460 (Homo sapiens), at least 10 µM; in the assay on A549 (Homo sapiens), at least 10 µM; in the assay with CALU3 (Homo sapiens, Calu-3), at least 10 µM; with HepG2 (Homo sapiens), at least 10 µM; in the assay on SK-Hep-1 (Homo sapiens, SK-HEP1), at least 10 µM. The IC50 in the assay on HuH-7 (Homo sapiens) is at least 10 µM; in the assay on A2058 (Homo sapiens, A2058, 120 h) it was at least 10 µM; with 4405 it was at least 10 µM; in the assay with MM200 it was at least 10 µM; in the assay with MDA-MB-468 (setting [1]) it was at least 10 µM; in the assay with SKBR-3 (Homo sapiens, SK-BR-3, 120 h) it was at least 10 µM.

Regarding `Cc1cc([C@H]2c3ccc(O)c(C)c3OC[C@H]2c2ccc(O)cc2)ccc1O` (relative stereo) [l-6, l-cis-3-(4-hydroxyphenyl)-4-(4-hydroxy-3-methylphenyl)-8-methylchroman-7-ol], the half-maximal inhibitory concentration (IC50) in the assay on PC3, in the assay on DU145, in the assay on LNCaP, in the assay on COLO205, in the assay on A2780 and in the assay on R-182 was at least 10 µM throughout. In addition, the half-maximal inhibitory concentration (IC50) with CP70, in the assay on NCI-H460, in the assay with A549, with CALU3, in the assay on HepG2 and in the assay with SK-Hep-1 was at least 10 µM each time. For the same compound, the IC50 in the assay on HuH-7 is at least 10 µM; with A2058, at least 10 µM; in the assay on 4405, at least 10 µM; in the assay on MM200, at least 10 µM; with MDA-MB-468 it was at least 10 µM; in the assay on SKBR-3 it was 1.6 to 10 µM.

Take `COc1ccc(C2c3ccc(O)c(C)c3OCC2c2ccc(O)cc2)cc1C` (stereo not drawn) [Compound 7, 3-(4-hydroxyphenyl)-4-(4-methoxy-3-methylphenyl)-8-methylchroman-7-ol]: the 50% inhibitory concentration (IC50) in the assay with PC3 (Homo sapiens, PC-3, 120 h) was 1.6 to 10 µM; with DU145 (Homo sapiens, DU-145) it was 1.6 to 10 µM; in the assay with LNCaP (Homo sapiens) it was 1.6 to 10 µM; in the assay with COLO205 (Homo sapiens, COLO 205), at least 10 µM; in the assay with A2780 (Homo sapiens, A2780, 120 h), 1.6 to 10 µM; in the assay on R-182 it was 1.6 to 10 µM. For the same compound, the 50% inhibitory concentration (IC50) lay within 1.6 to 10 µM with CP70 (120 h); 1.6 to 10 µM in the assay on NCI-H460 (Homo sapiens); 1.6 to 10 µM with A549 (Homo sapiens); 1.6 to 10 µM in the assay with CALU3 (Homo sapiens, Calu-3); 1.6 to 10 µM in the assay on HepG2 (Homo sapiens); 1.6 to 10 µM in the assay with SK-Hep-1 (Homo sapiens, SK-HEP1). The IC50 in the assay with HuH-7 (Homo sapiens) is 1.6 to 10 µM; in the assay on A2058 (Homo sapiens, A2058, 120 h) it was 1.6 to 10 µM; in the assay with 4405 it was 1.6 to 10 µM; with MM200, at least 10 µM; in the assay on MDA-MB-468 (setting [1]), 1.6 to 10 µM; in the assay on SKBR-3 (Homo sapiens, SK-BR-3, 120 h) it was 0.51 to 1.5 µM.
